A value given as a limit tells only on which side of the number the result lay.

The test has as its system AX-OH-1 cells. Nature of the test: MTT cell viability assay, AX-OH-1. The format is cell-based, human. Conditions: AX-OH-1 (aRMS), 48 h. On the procedure: RH30 human aRMS cells (kindly provided by Associate Professor Judith Davie, Southern Illinois University), AX-OH-1 human aRMS and FL-OH-1 human eRMS cells (kindly provided by Professor Stefan Bath, University of Cape Town) were cultured in Roswell Park Memorial Institute Medium (RPMI)-1640 (Sigma Aldrich, Missouri, USA). […] Cell morphology was monitored using an Olympus CKX41 inverted microscope (MSAC Ltd, UK) and imaged with an EVOS™ XL AMEX1000 Core Imaging System (Thermo Fisher Scientific, Massachusetts, USA).
Cells were seeded in 96-well plates and treated the next day with a range of AJ-5 concentrations (0.1–1.0 μM) or vehicle ([…]) for 48 h. Cell viability was measured using the 3-(4,5-dimethylthiazol-2-yl)-2,5-diphenyl-trazolium bromide (MTT) assay (11465007001; Sigma Aldrich) according to the manufacturer’s instructions. Mean cell viability was calculated as a percentage of the mean vehicle control. At least three independent experiments in quadruplicate were performed from which the half maximal inhibitory concentration (IC50) was determined using GraphPad Prism version 6.0 (GraphPad Software, California, USA). The selectivity index (SI) was determined by dividing the IC50 of a normal cell line by the IC50 of a cancer cell line.
On the technique in general: Tetrazolium assays rely on reduction of a dye to a coloured formazan, in cell work by metabolically active cells.

Turning to `CC(C)c1cccc(C(C)C)c1[N+]1=Cc2cccc[c]2[Pd-2]1([Cl])[P+](CC[P+](c1ccccc1)(c1ccccc1)[Pd-2]1([Cl])[c]2ccccc2C=[N+]1c1c(C(C)C)cccc1C(C)C)(c1ccccc1)c1ccccc1` (stereo not shown) [AJ-5], the IC50 – broadly, the concentration at which inhibition is half-maximal – is no more than 200 nM.

For the origin of these results see publication PMC6349869, “The palladacycle complex AJ-5 induces apoptotic cell death while reducing autophagic flux in rhabdomyosarcoma cells” (Cell Death Discovery, 2019).
